Consider 32 compounds from US20030229067A1, “Pyrrolopyrimidine A2b selective antagonist compounds, their synthesis and use” (priority 2001, published 2003).

Broadly, the melting point is the temperature of the solid-liquid transition. Consider `CC(=O)NCCNc1nc(-c2ccccc2)nc2[nH]c(C(=O)Nc3ccc(Oc4ccccc4)cc3)cc12` [26.2, 4-(2-Acetylaminoethylamino)-2-phenyl-7H-pyrrolo[2,3-d]pyrimidine-6-carboxylic acid (4-phenoxyphenyl)-amide], for which the melting point is 250 to 257 °C (dec.). `CC(=O)NCCNc1nc(-c2ccccc2)nc2[nH]c(C(=O)N3C[C@@H](C)N(CCCc4ccccc4)[C@@H](C)C3)cc12` [26.24, N-(2-{6-[cis-3,5-Dimethyl-4-(3-phenylpropyl)-piperazine-1-carbonyl]-2-phenyl-7H-pyrrolo[2,3-d]pyrimidin-4-ylamino}-ethyl)-acetamide] displayed a melting point of 86 to 89 °C. Next, `CC(=O)NCCNc1nc(-c2ccccc2)nc2[nH]c(C(=O)Nc3cccc(Oc4ccccc4)c3)cc12` [26.20, 4-(2-Acetylaminoethylamino)-2-phenyl-7H-pyrrolo[2,3-d]pyrimidine-6-carboxylic acid (3-phenoxyphenyl)-amide]: 140 to 142 °C; `CC(=O)NCCNc1nc(-c2ccccc2)nc2[nH]c(C(=O)N3C[C@@H](C)NC[C@@H]3C)cc12` (relative stereo) [26.31, N-{2-[6-(trans-2,5-Dimethylpiperazine-1-carbonyl)-2-phenyl-7H-pyrrolo[2,3-d]pyrimidin-4-ylamino]-ethyl}-acetamide]: 120 to 125 °C; `COC1(c2ccc(F)cc2)CCN(C(=O)c2cc3c(NCCNC(C)=O)nc(-c4ccccc4)nc3[nH]2)CC1` [26.48, N-(2-{6-[4-(4-Fluorophenyl)4-methoxypiperidine-1-carbonyl]-2-phenyl-7H-pyrrolo[2,3-d]pyrimidin-4-ylamino}-ethyl)-acetamide]: 134 to 137 °C.

`CC(=O)NCCNc1nc(-c2ccccc2)nc2[nH]c(C(=O)N3CCN(c4ccc(C(F)(F)F)cn4)CC3)cc12` [26.39, N-(2-{2-Phenyl-6-[4-(5-trifluoromethylpyridin-2-yl)-piperazine-1-carbonyl]-7H-pyrrolo[2,3-d]pyrimidin-4-ylamino}-ethyl)-acetamide] displayed a melting point of 270 to 273 °C. `CC(=O)NCCNc1nc(-c2ccccc2)nc2[nH]c(C(=O)N3CCC(C#N)(c4ccccc4)CC3)cc12` [26.19, N-{2-[6-(4-Cyano-4-phenylpiperidine-1-carbonyl)-2-phenyl-7H-pyrrolo[2,3-d]pyrimidin-4-ylamino]-ethyl}-acetamide]: the melting point was 150 to 155 °C (dec.). Next, `CC(=O)NCCNc1nc(-c2ccccc2)nc2[nH]c(C(=O)N3CCN(c4ccc(F)cc4)CC3)cc12` [26.38, N-(2-{6-[4-(4-Fluorophenyl)-piperazine-1-carbonyl]-2-phenyl-7H-pyrrolo[2,3-d]pyrimidin-4-ylamino}-ethyl)-acetamide]: 234 °C; `NC(=O)CNc1nc(-c2ccccc2)nc2[nH]c(C(=O)N3CCC(O)(c4ccc(Cl)cc4)CC3)cc12` [26.9, 2-{6-[4-(4-Chlorophenyl)-4-hydroxypiperidine-1-carbonyl]-2-phenyl-7H-pyrrolo[2,3-d]pyrimidin-4-ylamino}-acetamide]: 200 to 205 °C (dec.); `CC(=O)NCCNc1nc(-c2ccccc2)nc2[nH]c(C(=O)N3CCN(CCc4ccccc4)CC3)cc12` [26.11, N-{2-[6-(4-Phenethylpiperazine-1-carbonyl)-2-phenyl-7H-pyrrolo[2,3-d]pyrimidin-4-ylamino]-ethyl}-acetamide]: 226 to 228 °C. Consider `CC(=O)NCCNc1nc(-c2ccccc2)nc2[nH]c(C(=O)N3CCCC(c4ccccc4)(c4ccccc4)C3)cc12` [26.26, N-{2-[6-(3,3-Diphenylpiperidine-1-carbonyl)-2-phenyl-7H-pyrrolo[2,3-d]pyrimidin-4-ylamino]-ethyl}-acetamide], for which the melting point is 156 to 159 °C (dec.). Under `CC(=O)NCCNc1nc(-c2ccccc2)nc2[nH]c(C(=O)N3CCN(CC#Cc4ccccc4)CC3)cc12` [26.21, N-(2-{2-Phenyl-6-[4-(3-phenylprop-2-ynyl)-piperazine-1-carbonyl]-7H-pyrrolo[2,3-d]pyrimidin-4-ylamino}-ethyl)-acetamide] stands 213 to 215 °C; under `CC(=O)NCCNc1nc(-c2ccccc2)nc2[nH]c(C(=O)N3CCC(O)(c4ccc(F)cc4)CC3)cc12` [26.18, N-(2-{6-[4-(4-Fluorophenyl)4-hydroxypiperidine-1-carbonyl]-2-phenyl-7H-pyrrolo[2,3-d]pyrimidin-4-ylamino}-ethyl)-acetamide], 150 to 153 °C. In turn, `CC(=O)NCCNc1nc(-c2ccccc2)nc2[nH]c(C(=O)N3CCN(CCOc4ccc(Cl)cc4)CC3)cc12` [26.16, N-[2-(6-{4-[2-(4-Chlorophenoxy)-ethyl]-piperazine-1-carbonyl}-2-phenyl-7H-pyrrolo[2,3-d]pyrimidin-4-ylamino)-ethyl]-acetamide] yielded a melting point of 227 to 228 °C.

Regarding `COC1(c2ccccc2Cl)CCN(C(=O)c2cc3c(NCCNC(=O)c4cc5c(NCCNC(C)=O)nc(-c6ccccc6)nc5[nH]4)nc(-c4ccccc4)nc3[nH]2)CC1` [26.51, 4-(2-Acetylaminoethylamino)-2-phenyl-7H-pyrrolo[2,3-d]pyrimidine-6-carboxylic acid (2-{6-[4-(2-chlorophenyl)-4-methoxypiperidine-1-carbonyl]-2-phenyl-7H-pyrrolo[2,3-d]pyrimidin-4-ylamino}-ethyl)-amide], the melting point is 180 to 185 °C (dec.). Next, `CC(=O)NCCNc1nc(-c2ccccc2)nc2[nH]c(C(=O)N3C[C@@H](C)N(Cc4ccccc4)[C@@H](C)C3)cc12` [26.32]: 196 to 198 °C; `CC(=O)NCCNc1nc(-c2ccccc2)nc2[nH]c(C(=O)N3CCC(C(O)c4ccc(F)cc4)CC3)cc12` (centres unmarked) [26.29]: 135 to 145 °C (dec.). Take `CC(=O)NCCNc1nc(-c2ccccc2)nc2[nH]c(C(=O)N3CCC(Cc4ccc(F)cc4)CC3)cc12` [26.28, N-(2-{6-[4-(4-Fluorobenzyl)-piperidine-1-carbonyl]-2-phenyl-7H-pyrrolo[2,3-d]pyrimidin-4-ylamino}-ethyl)-acetamide]: the melting point was 283 to 284 °C (dec.). Under `CC(=O)NCCNc1nc(-c2ccccc2)nc2[nH]c(C(=O)N3CCC(O)(Cc4ccccc4)CC3)cc12` [26.8, N-{2-[6-(4-Benzyl-4-hydroxypiperidine-1-carbonyl)-2-phenyl-7H-pyrrolo[2,3-d]pyrimidin-4-ylamino]-ethyl}-acetamide] stands 140 to 145 °C (dec.); under `CC(=O)NCCNc1nc(-c2ccccc2)nc2[nH]c(C(=O)N3C[C@@H](C)N(CCCc4ccccc4)C[C@@H]3C)cc12` [26.30], 98 to 100 °C. Take `CC(=O)NCCNc1nc(-c2ccccc2)nc2[nH]c(/C=N/OCc3ccccc3)cc12` [22.1, N-{2-[6-(Benzyloxyiminomethyl)-2-phenyl-7H-pyrrolo[2,3-d]pyrimidin-4-ylamino]-ethyl}-acetamide]: the melting point was 83 to 87 °C (dec.).

Compound `CC(=O)NCCNc1nc(-c2ccccc2)nc2[nH]c(C(=O)N3CCOCC3)cc12` [26.1, N-{2-[6-(Morpholine-4-carbonyl)-2-phenyl-7H-pyrrolo[2,3-d]pyrimidin-4-ylamino]-ethyl}-acetamide] registered a melting point of 250 °C. `COC1(c2ccccc2)CCN(C(=O)c2cc3c(NCCNC(C)=O)nc(-c4ccccc4)nc3[nH]2)CC1` [26.27, N-{2-[6-(4-Methoxy-4-phenylpiperidine-1-carbonyl)-2-phenyl-7H-pyrrolo[2,3-d]pyrimidin-4-ylamino]-ethyl}-acetamide] returned a melting point of 135 to 138 °C.

As for `CC(=O)NCCNc1nc(-c2ccccc2)nc2[nH]c(C(=O)NC3CC4CCC3C4)cc12` (centres unmarked) [26.17], the melting point was 280 to 285 °C (dec.). Under `CC(=O)NCCNc1nc(-c2ccccc2)nc2[nH]c(C(=O)N3CCN(CCCN4CCOCC4)CC3)cc12` [26.12, N-(2-{6-[4-(3-Morpholin-4-ylpropyl)-piperazine-1-carbonyl]-2-phenyl-7H-pyrrolo[2,3-d]pyrimidin-4-ylamino}-ethyl)-acetamide] stands 225 to 230 °C (dec.). Next, `CC(=O)NCCNc1nc(-c2ccccc2)nc2[nH]c(C(=O)N3CCN(c4ccccn4)CC3)cc12` [26.35, N-{2-[2-Phenyl-6-(4-pyridin-2-yl-piperazine-1-carbonyl)-7H-pyrrolo[2,3-d]pyrimidin-4-ylamino]-ethyl}-acetamide]: 223 to 226 °C (dec.); `CC(=O)NCCNc1nc(-c2ccccc2)nc2[nH]c(C(=O)N3CCC(O)(c4ccccc4)CC3)cc12` [26.7, N-{2-[6-(4-Hydroxy4-phenylpiperidine-1-carbonyl)-2-phenyl-7H-pyrrolo[2,3-d]pyrimidin-4-ylamino]-ethyl}-acetamide]: 158 to 162 °C (dec.). Consider `NC(=O)CNc1nc(-c2ccccc2)nc2[nH]c(C(=O)N3CCN(CCCc4ccccc4)CC3)cc12` [26.15, 2-{2-Phenyl-6-[4-(3-phenylpropyl)-piperazine-1-carbonyl]-7H-pyrrolo[2,3-d]pyrimidin-4-ylamino}-acetamide], for which the melting point is 213 to 217 °C. `CC(=O)NCCNc1nc(-c2ccccc2)nc2[nH]c(C(=O)N3CCCC(C)(c4ccccc4)C3)cc12` (centres unmarked) [26.36, N-{2-[6-(3-Methyl-3-phenylpiperidine-1-carbonyl)-2-phenyl-7H-pyrrolo[2,3-d]pyrimidin-4-ylamino]-ethyl}-acetamide] registered a melting point of 140 to 145 °C. Next, `CC(=O)NCCNc1nc(-c2ccccc2)nc2[nH]c(C(=O)N3CCC4(CC3)CCN(Cc3ccccc3)C4=O)cc12` [26.49, N-{2-[6-(2-Benzyl-1-oxo-2,8-diazaspiro[4.5]decane-8-carbonyl)-2-pheny1-7H-pyrrolo[2,3-d]pyrimidin-4-ylamino]-ethyl}-acetamide]: 140 °C (dec.); `CC(=O)NCCNc1nc(-c2ccccc2)nc2[nH]c(C(=O)N3CCN(Cc4ccccc4)CC3)cc12` [26.14, N-{2-[6-(4-Benzylpiperazine-1-carbonyl)-2-phenyl-7H-pyrrolo[2,3-d]pyrimidin-4-ylamino]-ethyl}-acetamide]: 235 to 240 °C (dec.); `COC(=O)c1cccc(OCc2cc3c(NCCNC(C)=O)nc(-c4ccccc4)nc3[nH]2)c1` [9.19, 3-[4-(2-Acetylaminoethylamino)-2-phenyl-7H-pyrrolo[2,3-d]pyrimidin-6-ylmethoxy]-benzoic acid methyl ester]: 80 to 85 °C (dec.).
